The text below walks through data of US5614497A, “Peptide, production and use thereof” (Takeda Chemical Industries, Ltd., priority 1991, dated 1997).

As a reminder, the IC50 is the point on the concentration scale where inhibition reaches its midpoint.

Each structure is given as a SMILES string. *1 amine or outer side, *2 acyl side, *3 side chain or, on linkers, in order; H or OH if unused. Where a SMILES comes first, the peptide text is derived from it. [ ]: non-standard residue; d: D form. The star is where a group is joined. Tyr(3-F) = N[C@@H](Cc1ccc(O)c(F)c1)C(=O)O; Tyr(3-I) = N[C@@H](Cc1ccc(O)c(I)c1)C(=O)O; Phe(4-F) = N[C@@H](Cc1ccc(F)cc1)C(=O)O; Boc = CC(C)(C)OC(=O)*; CO = O=C([*:1])[*:2]; Ahx = NCCCCCC(=O)O; X1 = C1CCCN(*)CC1; βAla = NCCC(=O)O

The assay deals with endothelin receptors. The assay can be described thus: Receptor Binding Assay (displacement of radioactive-iodine-labeled endothelin-1 from swine heart membrane fraction). The note with it: membrane fraction prepared from swine heart; endothelin-1 labeled with radioactive iodine; incubation at 25° C, 1 hour. How it is done:
The membrane fraction prepared from swine heart was diluted to 0.15 mg/ml with an assaying buffer and dispensed to assaying tubes at 100 μl per tube. To this membrane fraction suspension were added 2 μl of a solution of endothelin-1labeled with 5 nM radioactive iodine and 3 μl of a 50% dimethylsulfoxide solution of the subject peptide, followed by incubation at 25° C. After 1 hour, the suspension was diluted with 900 μl of an ice-cooled assaying buffer and centrifuged at 12,000×G for 10 minutes to separate supernatant and precipitate. The precipitate contained cell membranes and endothelin receptors embedded therein. The receptor-bound endothelin, labeled with radioactive iodine, was also recovered in the precipitate. The radioactive iodine in this precipitate was counted, using a gamma ray counter, to determine the amount of radioactive-iodine-labeled endothelin bound to the endothelin receptors. The results of the quantitative determination are shown in IC50 (M) below.

Regarding `CC(C)C[C@H](NC(=O)OC(C)(C)C)C(=O)N[C@H](Cc1c[nH]c2ccccc12)C(=O)N[C@H](C)C(=O)NCCC(=O)N[C@@H](Cc1ccc(O)cc1)C(=O)N[C@H](Cc1ccccc1)C(=O)O` [Example 1, Boc-Leu-(D)Trp-(D)Ala-βAla-Tyr-(D)Phe-OH] (Boc-L[dW][dA][βAla]Y[dF]-OH), the IC50 turned out to be 4.6 nM.
The value for `CC(C)C[C@H](NC(=O)OC(C)(C)C)C(=O)N[C@H](Cc1c[nH]c2ccccc12)C(=O)N[C@H](C)C(=O)NCCC(=O)N[C@@H](Cc1ccc(O)cc1)C(=O)N[C@@H](Cc1ccccc1)C(=O)O` [Example 2, Boc-Leu-(D)Trp-(D)Ala-βAla-Tyr-Phe-OH] (Boc-L[dW][dA][βAla]YF-OH) was 9 nM; that for `CC(C)C[C@H](NC(=O)OC(C)(C)C)C(=O)N[C@H](Cc1c[nH]c2ccccc12)C(=O)N[C@H](C)C(=O)NCCCCCC(=O)N[C@@H](Cc1ccc(O)cc1)C(=O)N[C@@H](Cc1ccccc1)C(=O)O` [Example 5, Boc-Leu-(D)Trp-(D)Ala-εAhx-Tyr-Phe-OH] (Boc-L[dW][dA][Ahx]YF-OH) was 7.2 nM.
With `CC(C)C[C@H](NC(=O)OC(C)(C)C)C(=O)N[C@H](Cc1c[nH]c2ccccc12)C(=O)N[C@H](C)C(=O)NCCC(=O)N[C@@H](Cc1ccc(O)c(F)c1)C(=O)N[C@@H](Cc1ccc(F)cc1)C(=O)O` [Example 38, Boc-Leu-(D)Trp-(D)Ala-βAla-(m-F)Tyr-(p-F)Phe-OH] (Boc-L[dW][dA][βAla][Tyr(3-F)][Phe(4-F)]-OH) the figure was 60 nM; with `CC(C)C[C@H](NC(=O)N1CCCCCC1)C(=O)N[C@H](Cc1c[nH]c2ccccc12)C(=O)N[C@H](C)C(=O)NCCC(=O)N[C@@H](Cc1ccc(O)cc1)C(=O)N[C@H](Cc1ccccc1)C(=O)O` [Example 39, hexamethyleneimino-CO-Leu-(D)Trp-(D)Ala-βAla-Tyr-(D)Phe-OH] ({X1-CO}-L[dW][dA][βAla]Y[dF]-OH), 0.34 nM; with `CC(C)C[C@H](NC(=O)N1CCCCCC1)C(=O)N[C@H](Cc1c[nH]c2ccccc12)C(=O)N[C@H](C)C(=O)NCCC(=O)N[C@@H](Cc1ccc(O)c(I)c1)C(=O)N[C@H](Cc1ccccc1)C(=O)O` [Example 43, Hexamethyleneimino-CO-Leu-(D)Trp-(D)Ala-βAla-Tyr(I)-(D)Phe-OH] ({X1-CO}-L[dW][dA][βAla][Tyr(3-I)][dF]-OH), 0.71 nM.
With `CC(C)C[C@H](NC(=O)OC(C)(C)C)C(=O)N[C@H](Cc1c[nH]c2ccccc12)C(=O)N[C@H](C)C(=O)NCCC(=O)N[C@@H](CCC(=O)O)C(=O)O` [Reference Example 1, Boc-Leu-(D)Trp-(D)Ala-βAla-Glu--OH, reference compound] (Boc-L[dW][dA][βAla]E-OH) the figure was 700 nM; with `CC(C)C[C@H](NC(=O)OC(C)(C)C)C(=O)N[C@H](Cc1c[nH]c2ccccc12)C(=O)N[C@H](C)C(=O)NCCC(=O)N[C@H](CC(C)C)C(=O)O` [Reference Example 2, Boc-Leu-(D)Trp-(D)Ala-βAla-(D)Leu--OH, reference compound] (Boc-L[dW][dA][βAla][dL]-OH), 420 nM.
